In experiment [1] the test system is T1, muscarinic acetylcholine receptor M3 (M1/3R).
T1 construct: gene CHRM3
Kind of experiment: GCaMP6s calcium imaging dose-response (AUC) in primary human OPCs, endogenous M1/M3 receptors. It counts as cell-based.

Experiment [2] addresses T2, metabotropic type 5 glutamate receptor (mGluR5) (Homo sapiens, UniProt P41594).
T2 construct: gene GRM5
Kind of experiment: GCaMP6s calcium imaging dose-response (AUC) in primary human OPCs, endogenous receptor. It counts as cell-based.

EC50 data for 2 compounds are collected here from publication PMC9007940, “Oscillatory calcium release and sustained store-operated oscillatory calcium signaling prevents differentiation of human oligodendrocyte progenitor cells” (Scientific Reports, 2022).

T2 sequence (P41594 21-1212): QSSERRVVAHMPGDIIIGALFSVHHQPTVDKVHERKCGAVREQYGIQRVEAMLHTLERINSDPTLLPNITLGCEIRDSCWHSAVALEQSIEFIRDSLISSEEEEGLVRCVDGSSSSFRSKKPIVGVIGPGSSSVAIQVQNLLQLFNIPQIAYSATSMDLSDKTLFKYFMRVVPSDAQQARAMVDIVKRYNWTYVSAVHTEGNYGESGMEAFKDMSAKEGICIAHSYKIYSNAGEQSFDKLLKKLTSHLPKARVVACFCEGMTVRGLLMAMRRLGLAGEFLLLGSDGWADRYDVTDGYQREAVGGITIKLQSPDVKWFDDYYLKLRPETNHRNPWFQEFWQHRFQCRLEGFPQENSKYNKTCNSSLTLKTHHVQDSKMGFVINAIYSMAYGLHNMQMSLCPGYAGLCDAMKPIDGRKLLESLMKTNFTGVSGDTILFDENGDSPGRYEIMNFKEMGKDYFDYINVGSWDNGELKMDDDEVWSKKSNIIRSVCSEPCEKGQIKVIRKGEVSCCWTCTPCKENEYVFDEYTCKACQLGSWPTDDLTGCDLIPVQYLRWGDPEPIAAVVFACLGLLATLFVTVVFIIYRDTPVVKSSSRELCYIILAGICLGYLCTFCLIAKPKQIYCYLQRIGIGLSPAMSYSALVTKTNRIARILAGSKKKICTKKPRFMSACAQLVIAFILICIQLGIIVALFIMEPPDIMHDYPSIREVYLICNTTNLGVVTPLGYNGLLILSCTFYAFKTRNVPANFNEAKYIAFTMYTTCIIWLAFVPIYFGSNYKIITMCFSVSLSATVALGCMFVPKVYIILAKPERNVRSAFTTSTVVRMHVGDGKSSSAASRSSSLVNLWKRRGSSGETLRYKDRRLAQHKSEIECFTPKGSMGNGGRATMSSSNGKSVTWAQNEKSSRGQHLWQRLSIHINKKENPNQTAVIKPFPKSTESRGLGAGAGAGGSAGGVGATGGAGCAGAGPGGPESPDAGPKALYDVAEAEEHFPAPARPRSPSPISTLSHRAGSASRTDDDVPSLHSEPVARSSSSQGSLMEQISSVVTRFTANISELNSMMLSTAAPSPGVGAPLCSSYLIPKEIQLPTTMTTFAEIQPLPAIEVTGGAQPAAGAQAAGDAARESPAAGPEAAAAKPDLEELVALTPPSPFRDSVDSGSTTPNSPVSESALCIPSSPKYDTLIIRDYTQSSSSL

As for `C[N+](C)(C)CC#CCN1CCCC1=O` [Oxo-M], the half-maximal effective concentration (EC50) (in general, the concentration giving half of the maximal effect) in experiment [1] came out at 2.2 µM.

For `NC(C(=O)O)c1cc(O)ccc1Cl` (centres unmarked) [CHPG], in experiment [2], the EC50 worked out at 1300 µM.
